Laboratory results from ChEMBL document CHEMBL1145615, “A refined pharmacophore model for HIV-1 integrase inhibitors: Optimization of potency in the 1H-benzylindole series” (Bioorg Med Chem Lett, 2008).

Experiments:
[1] = biological target: T1, Human immunodeficiency virus type 1 integrase (Human immunodeficiency virus 1, UniProt Q7ZJM1)
Description: Inhibition of HIV1 integrase

[2] = biological target: T1, Human immunodeficiency virus type 1 integrase; remark: listed apart in the source
Description: Inhibition of HIV1 integrase strand transfer activity

[3] = Cytotoxicity against human MT4 cells; format: cell-based
[4] = system: Human immunodeficiency virus 1; assay: Antiviral activity against HIV1 3B assessed as inhibition of viral-induced cytopathic effect in human MT4 cells; format: functional, organism-based; conditions: Human immunodeficiency virus 1, 3B
[5] = Selectivity index, ratio of CC50 for human MT4 cells to EC50 for HIV1 3B; format: functional

T1 sequence (Q7ZJM1 whole entry): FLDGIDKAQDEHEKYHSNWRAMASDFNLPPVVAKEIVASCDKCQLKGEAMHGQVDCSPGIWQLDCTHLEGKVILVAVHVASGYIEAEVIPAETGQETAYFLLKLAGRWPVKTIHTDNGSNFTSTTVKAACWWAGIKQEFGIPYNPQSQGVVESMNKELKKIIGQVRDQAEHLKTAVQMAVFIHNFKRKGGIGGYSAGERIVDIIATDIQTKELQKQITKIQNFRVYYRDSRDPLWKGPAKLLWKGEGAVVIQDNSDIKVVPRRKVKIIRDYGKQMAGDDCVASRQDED

Row | SMILES | IC50 [1] [nM] | IC50 [2] [nM] | CC50 [3] [µM] | EC50 [4] [µM] | Ratio CC50/EC50 [5]
1 | COc1ccc(OC)c2c1c(C(=O)/C=C(\O)C(=O)O)cn2Cc1ccc(F)cc1 | 60 | 30 | 213 | 2.13 | 100
2 | COc1ccc2c(C(=O)/C=C(\O)C(=O)O)cn(Cc3ccc(F)cc3)c2c1 | 190 | 220 | 66 | 8.39 | 8
3 | COc1ccc2c(c1)c(C(=O)/C=C(\O)C(=O)O)cn2Cc1ccc(F)cc1 | 300 | 270 | 63.6 | 5.63 | 12
4 | CCOC(=O)/C(O)=C/C(=O)c1cn(Cc2ccc(F)cc2)c2cc(OC)ccc12 | 1960 | 2340 | 100 | > 100 | <1
5 | CCOC(=O)/C(O)=C/C(=O)c1cn(Cc2ccc(F)cc2)c2cccc(OC)c12 | 86100 | 92300 | 74 | 3.17 | 24
6 | CCOC(=O)/C(O)=C/C(=O)c1cn(Cc2ccc(F)cc2)c2c(OC)ccc(OC)c12 | 1240 | 660 | 81.1 | 4.09 | 20
7 | CCOC(=O)/C(O)=C/C(=O)c1cn(Cc2ccc(F)cc2)c2c(OC)cccc12 | 4760 | 2640 | > 100 | > 100 | –
8 | O=C(O)/C(O)=C/C(=O)c1cn(Cc2ccc(F)cc2)c2ccccc12 | 860 | 2330 | 64.1 | 8.35 | 8
9 | COc1cc2c(cc1Cc1cccc(Cl)c1F)c(=O)c(C(=O)O)cn2[C@H](CO)C(C)C | – | – | 2.12 | 0.0008 | –
10 | COc1cccc2c(C(=O)/C=C(\O)C(=O)O)cn(Cc3ccc(F)cc3)c12 | 270 | 190 | 82.9 | 7.04 | 12
11 | CCOC(=O)/C(O)=C/C(=O)c1cn(Cc2ccc(F)cc2)c2ccc(OC)cc12 | 4600 | 7550 | 126 | 11.5 | 11
12 | COc1cccc2c1c(C(=O)/C=C(\O)C(=O)O)cn2Cc1ccc(F)cc1 | 80 | 140 | 41.1 | – | 70
13 | Cc1nnc(C(=O)NC(C)(C)c2nc(C(=O)NCc3ccc(F)cc3)c(O)c(=O)n2C)o1 | – | – | > 18 | 0.013 | –
